Activity calls are given as the source filed them. The calls are words filed in the database; no cut-off is given here.
Columns and labels:
[1] = Binding affinity to potassium ion in HPTS dye encapsulated EPYC/cholesterol vesicles assessed as increase in internal pH at 5 mol% of lipid after 2 mins in presence of KOH loaded external vesicles by fluorescence spectroscopic analysis (reference value: 5.6 +/- 1.2 10^-3/s)
[2] = Binding affinity to potassium ion in 1,2-diphytanoyl-sn-glycero-3-phosphocholine based bilayer membrane assessed as increase in membrane current at 0.1 mg/ml in presence of KCl loaded cis membrane
[3] = Binding affinity to lithium ion in HPTS dye encapsulated EPYC/cholesterol vesicles assessed as increase in internal pH at 5 mol% of lipid after 2 mins in presence of LiOH loaded external vesicles by fluorescence spectroscopic analysis (reference value: 5.6 +/- 1.2 10^-3/s)
[4] = Binding affinity to potassium ion in 1,2-diphytanoyl-sn-glycero-3-phosphocholine based bilayer membrane assessed as reversal of membrane potential at 0.1 mg/ml in presence of KCl loaded cis membrane
[5] = Effect on membrane integrity in EYPC/cholesterol vesicles at 40 uM by dynamic light scattering method; type: ADME
[6] = Binding affinity to sodium ion in lucigenin/NaCl encapsulated EPYC/cholesterol vesicle by fluorescence spectroscopic method
[7] = Binding affinity to sodium ion in HPTS dye encapsulated EPYC/cholesterol vesicles assessed as increase in internal pH at 5 mol% of lipid after 2 mins in presence of NaOH loaded external vesicles by fluorescence spectroscopic analysis (reference value: 5.6 +/- 1.2 10^-3/s)
[8] = Binding affinity to sodium ion in lucigenin/NaCl encapsulated EPYC/cholesterol vesicle at 10 mol% of lipid by fluorescence spectroscopic method
[9] = Binding affinity to sodium ion in HPTS dye encapsulated EPYC/cholesterol vesicles assessed as increase in internal pH at 20 uM after 2 mins in presence of NaOH loaded external vesicles by fluorescence spectroscopic analysis

SMILES: CCCCCCCCCCCCCC(=O)N[C@@H](C)C(=O)N[C@H](C)C(=O)N[C@@H](C)C(=O)Nc1cccc(C(=O)OCCOCCOCC)n1
- K [1]: 15.8 ×10⁻³ /s
- Activity [2]: 30 pA
- K [3]: 17.5 ×10⁻³ /s
- Activity [4]: -10.8 mV
- Activity [5]: Non-Toxic
- EC50 [6]: 0.94 mol%
- K [7]: 28.9 ×10⁻³ /s
- K [8]: 9.7 ×10⁻³ /s

SMILES: CCCCCCCCCCCCCC(=O)N[C@@H](C)C(=O)N[C@H](C)C(=O)N[C@@H](C)C(=O)Nc1cccc(C(=O)OC)n1
- K [1]: 15.3 ×10⁻³ /s
- K [3]: 14.3 ×10⁻³ /s
- Activity [5]: Non-Toxic
- K [7]: 12.4 ×10⁻³ /s

SMILES: CCCCCCCCCCCCCC(=O)N[C@@H](C)C(=O)Nc1cccc(C(=O)N[C@@H](C)C(=O)N[C@H](C)C(=O)OCCOCCOCC)n1
- Activity [2]: 40 pA
- Activity [4]: -14.9 mV
- Activity [5]: Non-Toxic
- Activity [9]: Active

Source: ChEMBL document CHEMBL4024741, “A minimalistic tetrapeptide amphiphile scaffold for transmembrane pores with a preference for sodium” (Bioorg Med Chem Lett, 2017)
